A short description of this data set: recombinant UMI read abundance after kanamycin selection (control-corrected) (log10(CPM+1)); higher = more efficient recombination; extreme values may be limits of the assay; sequences stand for … in AGTGCAGAGAAAATCGGCCAGTTTTCTCTGCCTGCAGTCCGCATGCCGTGGGACCCCTTGGGTTCTAACCTGTTGCCTAGATTTATGCAGCGGACTGCCTTTCTCCCAAAGTGATAAACCGG…AGGTTGGTTTCACT; site = the 11-nt donor. The protocol:
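Pooled E. coli donor-specificity screen for the IS621 bridge recombinase. Each library member carries a reprogrammed 11-nt donor and a full-length LE bridge RNA expressed in cis from the natural promoter, with a paired donor-binding loop (8-nt LDG + 4-nt RDG) and a target-binding loop fixed to T5. It is co-electroporated with a T5 target plasmid; recombinase is induced with 0.07 mM IPTG and recombinants are selected on kanamycin. UMIs are counted as CPM, averaged over two biological replicates and corrected by the unselected control. Molecule = full bridge RNA written as DNA, built from the T5 scaffold: LDG = donor specificity nt 1-8, RDG = reverse complement of nt 8-11.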
For the sequence “ACAGTATCATGGACCGGTTTTCCCGGTAATCCGTATTTGCG (site ACAGTATCTGG)”, the “recombinant UMI read abundance (log10)” value came out at 2.14. As for “ACAGTATCATGGACCGGTTTTCCCGGTAATCCGTATTTGCG (site ACAGTATCTTG)”, the figure is 2.57. On to “ACAGTATCATGGACCGGTTTTCCCGGTAATCCGTATTTGTG (site ACAGTATCTCA)”, for which the “recombinant UMI read abundance (log10)” value came to 3.03. As to “ACAGTATCATGGACCGGTTTTCCCGGTAATCCGTATTTGTG (site ACAGTATCTTG)”, the “recombinant UMI read abundance (log10)” value was determined as 1.03. The same measure for “ACATAAGCATGGACCGGTTTTCCCGGTAATCCGTATTTGAA (site ACATAAGCTTT)”: 2.7; for “ACATATACATGGACCGGTTTTCCCGGTAATCCGTATTTGTG (site ACATATACTCA)”: 1.81; for “ACATATACATGGACCGGTTTTCCCGGTAATCCGTATTTGTG (site ACATCTACTCA)”: 0.0121. The same measure for “ACATATACATGGACCGGTTTTCCCGGTAATCCGTATTTGTG (site ACATGTACTCA)”: 0.021; for “ACATATACATGGACCGGTTTTCCCGGTAATCCGTATTTGTG (site ACATTTACTCA)”: 0.0115.

Regarding “ACATCCACATGGACCGGTTTTCCCGGTAATCCGTATTTGTG (site ACATCAACTCA)”, the “recombinant UMI read abundance (log10)” value amounted to 0.0218. As to “ACATCCACATGGACCGGTTTTCCCGGTAATCCGTATTTGTG (site ACATCCACTCA)”, the “recombinant UMI read abundance (log10)” value was found to be 0.309.

With “ACATCCACATGGACCGGTTTTCCCGGTAATCCGTATTTGTG (site ACATCGACTCA)”, the “recombinant UMI read abundance (log10)” value amounted to 0.00941. The same measure for “ACATCCACATGGACCGGTTTTCCCGGTAATCCGTATTTGTG (site ACATCTACTCA)”: 0.0155. Regarding “ACATCTACATGGACCGGTTTTCCCGGTAATCCGTATTTGCG (site ACATCTACTCA)”, the “recombinant UMI read abundance (log10)” value is 0.195. With “ACATCTACATGGACCGGTTTTCCCGGTAATCCGTATTTGCG (site ACATCTACTCC)”, the “recombinant UMI read abundance (log10)” value was determined as 0.0147. As for “ACATCTACATGGACCGGTTTTCCCGGTAATCCGTATTTGCG (site ACATCTACTCG)”, the figure is 1.2. For the sequence “ACATCTACATGGACCGGTTTTCCCGGTAATCCGTATTTGCG (site ACATCTACTCT)”, the “recombinant UMI read abundance (log10)” value worked out at 0.353.

As to “ACATCTACATGGACCGGTTTTCCCGGTAATCCGTATTTGGG (site ACATCTACTCA)”, the “recombinant UMI read abundance (log10)” value was found to be 0.0151. Take “ACATCTACATGGACCGGTTTTCCCGGTAATCCGTATTTGGG (site ACATCTACTCC)”: the “recombinant UMI read abundance (log10)” value stood at 0.54.

Consider “ACATCTACATGGACCGGTTTTCCCGGTAATCCGTATTTGGG (site ACATCTACTCG)”, for which the “recombinant UMI read abundance (log10)” value was found to be 0.00576.

“ACATCTACATGGACCGGTTTTCCCGGTAATCCGTATTTGGG (site ACATCTACTCT)”: the “recombinant UMI read abundance (log10)” value was 0.0169. On to “ACATCTACATGGACCGGTTTTCCCGGTAATCCGTATTTGTG (site AAATCTACTCA)”, for which the “recombinant UMI read abundance (log10)” value was 0.00563. Take “ACATCTACATGGACCGGTTTTCCCGGTAATCCGTATTTGTG (site ACAACTACTCA)”: the “recombinant UMI read abundance (log10)” value worked out at 0.00896.

“ACATCTACATGGACCGGTTTTCCCGGTAATCCGTATTTGTG (site ACACCTACTCA)”: the “recombinant UMI read abundance (log10)” value turned out to be 0.00963. Consider “ACATCTACATGGACCGGTTTTCCCGGTAATCCGTATTTGTG (site ACAGCTACTCA)”, for which the “recombinant UMI read abundance (log10)” value amounted to 0.0992. In the case of “ACATCTACATGGACCGGTTTTCCCGGTAATCCGTATTTGTG (site ACATATACTCA)”, the “recombinant UMI read abundance (log10)” value is 0.324. As for “ACATCTACATGGACCGGTTTTCCCGGTAATCCGTATTTGTG (site ACATCAACTCA)”, the figure is 0.0141; as for “ACATCTACATGGACCGGTTTTCCCGGTAATCCGTATTTGTG (site ACATCCACTCA)”, 0.0072; as for “ACATCTACATGGACCGGTTTTCCCGGTAATCCGTATTTGTG (site ACATCGACTCA)”, 0.0136. The same measure for “ACATCTACATGGACCGGTTTTCCCGGTAATCCGTATTTGTG (site ACATCTACTAA)”: 0.044; for “ACATCTACATGGACCGGTTTTCCCGGTAATCCGTATTTGTG (site ACATCTACTCA)”: 0.552; for “ACATCTACATGGACCGGTTTTCCCGGTAATCCGTATTTGTG (site ACATCTACTCC)”: 0.0178. The same measure for “ACATCTACATGGACCGGTTTTCCCGGTAATCCGTATTTGTG (site ACATCTACTCG)”: 0.279. As to “ACATCTACATGGACCGGTTTTCCCGGTAATCCGTATTTGTG (site ACATCTACTCT)”, the “recombinant UMI read abundance (log10)” value amounted to 0.188. The same measure for “ACATCTACATGGACCGGTTTTCCCGGTAATCCGTATTTGTG (site ACATCTACTGA)”: 0; for “ACATCTACATGGACCGGTTTTCCCGGTAATCCGTATTTGTG (site ACATCTACTTA)”: 0; for “ACATCTACATGGACCGGTTTTCCCGGTAATCCGTATTTGTG (site ACATCTCCTCA)”: 0.0291. With “ACATCTACATGGACCGGTTTTCCCGGTAATCCGTATTTGTG (site ACATCTGCTCA)”, the “recombinant UMI read abundance (log10)” value was 0.0534. In the case of “ACATCTACATGGACCGGTTTTCCCGGTAATCCGTATTTGTG (site ACATCTTCTCA)”, the “recombinant UMI read abundance (log10)” value was 0.234. The same measure for “ACATCTACATGGACCGGTTTTCCCGGTAATCCGTATTTGTG (site ACATGTACTCA)”: 0.023; for “ACATCTACATGGACCGGTTTTCCCGGTAATCCGTATTTGTG (site ACATTTACTCA)”: 0.319. As for “ACATCTACATGGACCGGTTTTCCCGGTAATCCGTATTTGTG (site ACCTCTACTCA)”, the figure is 0.0111; as for “ACATCTACATGGACCGGTTTTCCCGGTAATCCGTATTTGTG (site ACGTCTACTCA)”, 0.0191; as for “ACATCTACATGGACCGGTTTTCCCGGTAATCCGTATTTGTG (site ACTTCTACTCA)”, 0.371. As to “ACATCTACATGGACCGGTTTTCCCGGTAATCCGTATTTGTG (site AGATCTACTCA)”, the “recombinant UMI read abundance (log10)” value was determined as 0.00667. On to “ACATCTACATGGACCGGTTTTCCCGGTAATCCGTATTTGTG (site ATATCTACTCA)”, for which the “recombinant UMI read abundance (log10)” value was determined as 0.245.

Regarding “ACATCTACATGGACCGGTTTTCCCGGTAATCCGTATTTGTG (site CCATCTACTCA)”, the “recombinant UMI read abundance (log10)” value worked out at 0.465. As for “ACATCTACATGGACCGGTTTTCCCGGTAATCCGTATTTGTG (site GCATCTACTCA)”, the figure is 0.305; as for “ACATCTACATGGACCGGTTTTCCCGGTAATCCGTATTTGTG (site TCATCTACTCA)”, 0.0183. As to “ACATGGTCATGGACCGGTTTTCCCGGTAATCCGTATTTGTC (site ACATGGTCTGA)”, the “recombinant UMI read abundance (log10)” value stood at 1.81.

In the case of “ACATTACCATGGACCGGTTTTCCCGGTAATCCGTATTTGCA (site ACAGTATCTTG)”, the “recombinant UMI read abundance (log10)” value worked out at 1.21. Turning to “ACATTACCATGGACCGGTTTTCCCGGTAATCCGTATTTGCA (site ACATTACCTTG)”, the “recombinant UMI read abundance (log10)” value is 0. For “ACATTATCATGGACCGGTTTTCCCGGTAATCCGTATTTGCC (site ACAGTATCTTG)”, the “recombinant UMI read abundance (log10)” value came to 0. As for “ACATTATCATGGACCGGTTTTCCCGGTAATCCGTATTTGCC (site ACATTATCTGG)”, the figure is 2.56; as for “ACATTGACATGGACCGGTTTTCCCGGTAATCCGTATTTGCC (site ACATTGACTGG)”, 2; as for “ACCACCGCATGGACCGGTTTTCCCGGTAATCCGTATTTGCG (site ACCACCGCTCG)”, 0.455.

Take “ACCACCGCATGGACCGGTTTTCCCGGTAATCCGTATTTGCG (site CCCACCGCTCG)”: the “recombinant UMI read abundance (log10)” value was 0.221. The same measure for “ACCACCGCATGGACCGGTTTTCCCGGTAATCCGTATTTGCG (site GCCACCGCTCG)”: 0; for “ACCACCGCATGGACCGGTTTTCCCGGTAATCCGTATTTGCG (site TCCACCGCTCG)”: 0.0102. The same measure for “ACCACTCCATGGACCGGTTTTCCCGGTAATCCGTATTTGTA (site ACCACTCCTTA)”: 0.852; for “ACCAGCCCATGGACCGGTTTTCCCGGTAATCCGTATTTGAT (site ACCAGCCCTAT)”: 0.0092; for “ACCCAGACATGGACCGGTTTTCCCGGTAATCCGTATTTGGG (site ACCAAGACTCC)”: 0.0107. As to “ACCCAGACATGGACCGGTTTTCCCGGTAATCCGTATTTGGG (site ACCCAGACTCC)”, the “recombinant UMI read abundance (log10)” value came to 0.036.

For the sequence “ACCCAGACATGGACCGGTTTTCCCGGTAATCCGTATTTGGG (site ACCGAGACTCC)”, the “recombinant UMI read abundance (log10)” value is 0.00445.

With “ACCCAGACATGGACCGGTTTTCCCGGTAATCCGTATTTGGG (site ACCTAGACTCC)”, the “recombinant UMI read abundance (log10)” value was found to be 0.00599.

The values are drawn from the supplement of paper PMC11208160.
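Further: IS621 bridge recombinase in Escherichia coli cells against a fixed T5 target plasmid.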
